{"source": "patent US8901177B2", "about": "“Method of treating bladder disorders” (Targacept, Inc., priority 2012, dated 2014)", "key": {"NMDA receptor NR1a-NR2B": {"molecular_target": "NMDA receptor NR1a-NR2B (Homo sapiens, UniProt Q05586+Q13224)", "sequence (Q13224 27-1484, other chains not shown)": "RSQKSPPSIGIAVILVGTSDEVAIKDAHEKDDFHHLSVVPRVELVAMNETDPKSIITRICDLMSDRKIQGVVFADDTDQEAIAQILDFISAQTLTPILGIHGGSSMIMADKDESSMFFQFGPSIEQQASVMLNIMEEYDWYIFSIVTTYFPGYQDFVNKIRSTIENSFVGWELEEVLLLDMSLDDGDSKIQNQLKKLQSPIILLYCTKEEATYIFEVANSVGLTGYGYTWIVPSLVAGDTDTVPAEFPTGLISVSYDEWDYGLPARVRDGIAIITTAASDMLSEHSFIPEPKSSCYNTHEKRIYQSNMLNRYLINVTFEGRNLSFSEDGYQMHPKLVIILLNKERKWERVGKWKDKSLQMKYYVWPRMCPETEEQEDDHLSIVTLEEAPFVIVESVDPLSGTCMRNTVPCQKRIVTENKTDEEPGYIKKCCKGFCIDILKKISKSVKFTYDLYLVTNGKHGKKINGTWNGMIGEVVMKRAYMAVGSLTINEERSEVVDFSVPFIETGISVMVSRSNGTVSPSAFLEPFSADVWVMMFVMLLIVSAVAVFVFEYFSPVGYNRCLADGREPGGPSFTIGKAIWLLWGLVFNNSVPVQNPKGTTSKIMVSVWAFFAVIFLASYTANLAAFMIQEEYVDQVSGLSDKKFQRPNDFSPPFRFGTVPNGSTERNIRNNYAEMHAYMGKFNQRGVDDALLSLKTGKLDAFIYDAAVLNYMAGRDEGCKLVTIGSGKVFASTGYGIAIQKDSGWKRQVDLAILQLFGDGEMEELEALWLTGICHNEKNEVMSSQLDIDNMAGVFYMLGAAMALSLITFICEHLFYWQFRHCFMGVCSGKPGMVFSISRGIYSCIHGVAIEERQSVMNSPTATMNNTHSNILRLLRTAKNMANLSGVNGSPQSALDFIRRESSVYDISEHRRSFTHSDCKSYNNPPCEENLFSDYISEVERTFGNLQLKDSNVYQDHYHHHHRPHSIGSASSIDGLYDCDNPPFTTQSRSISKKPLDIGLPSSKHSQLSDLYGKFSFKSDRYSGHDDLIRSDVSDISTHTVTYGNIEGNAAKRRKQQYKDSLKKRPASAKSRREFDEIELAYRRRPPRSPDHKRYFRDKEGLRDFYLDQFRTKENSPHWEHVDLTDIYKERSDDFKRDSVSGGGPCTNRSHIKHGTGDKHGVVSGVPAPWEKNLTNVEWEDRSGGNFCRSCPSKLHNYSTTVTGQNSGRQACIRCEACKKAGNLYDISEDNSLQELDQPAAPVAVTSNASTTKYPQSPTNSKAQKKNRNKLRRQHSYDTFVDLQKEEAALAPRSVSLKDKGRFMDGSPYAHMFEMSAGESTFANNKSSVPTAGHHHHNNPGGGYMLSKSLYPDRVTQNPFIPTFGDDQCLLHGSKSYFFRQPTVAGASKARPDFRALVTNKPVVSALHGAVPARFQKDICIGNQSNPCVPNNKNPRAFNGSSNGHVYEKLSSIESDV", "assay": "Glutamate-evoked currents at NR1a-NR2B receptors in Xenopus oocytes (two electrode voltage-clamp)", "assay_type": "cell-based", "experimental": "All experiments were carried out at receptors expressed in Xenopus oocytes using the method of cDNA expression. Currents evoked by glutamate were recorded using the standard two electrode voltage-clamp configuration (TVEC). Xenopus oocytes were prepared and injected using standard procedures.\nBriefly, ovaries are harvested from Xenopus Laevis females that have been deeply anesthetized and pithed following the animal rights rule from the Geneva canton. […] Data were filtered at 10 Hz, captured at 100 Hz and analyzed using HiQ proprietary data acquisition and analysis software running under Matlab (Mathworks Inc.).\nOocytes expressing the NR1a-NR2A or NR1a-NR2B receptors were challenged at periodic intervals with a glutamate test pulse. Test drug was then applied during a sustained period and its effects monitored by measuring the amplitude and time course of the glutamate evoked currents. […]\nTo further evaluate effects of TC-5214, experiments using sustained exposure to this compound followed by a recovery period were carried out at NR1a-NR2A and NR1a-NR2B receptors. Measurements were made with (nM) 0, 3, 10, 30, 100, 300, TC-5214 and recovery monitored during 10 minutes. […] Effects were measured in at least three cells. […]"}, "[1]": {"assay": "Urinary excretion and bladder/urine concentration after oral dosing, clinical program for depression", "assay_type": "in vivo, human", "details": "for excretion unchanged in the urine: human, in vivo", "experimental": "One aspect of the present invention is the use of dexmecamylamine as an oral agent for intravesical drug delivery. Oral doses (up to 4 mg BID) of dexmecamylamine evaluated during clinical studies for depression produced concentrations in the bladder in excess of 10 μM. […] Nicotinic receptors, including α3, α7, and β4, are expressed in the bladder urothelium itself. Agents that block nicotinic receptors in the bladder, such as hexamethonium, decrease bladder contractions and may block sensation of urgency. Inhibition of the α3 receptor diminishes bladder contraction frequency and afferent signaling to the brain (via P2X), thereby blocking or reducing the sensation of urgency. […] (Xu et al., Megacystis, mydriasis, and ion channel defect in mice lacking the α3 neuronal nicotinic acetylcholine receptor, Proc. Natl. Acad. Sci., Vol. 96, pp. 5746-5751, May 1999.)\nDuring the dexmecamylamine clinical program for depression, including the initial phase 1 study (conducted by Targacept), ≧90% of orally administered dexmecamylamine was excreted unchanged in the […]."}, "human α3β4 channels": {"molecular_target": "T1, human α3β4 channels (Homo sapiens, UniProt P30926+P32297)", "T1 construct": "host or cells: CHO cells", "T1 sequence (P32297 32-505)": "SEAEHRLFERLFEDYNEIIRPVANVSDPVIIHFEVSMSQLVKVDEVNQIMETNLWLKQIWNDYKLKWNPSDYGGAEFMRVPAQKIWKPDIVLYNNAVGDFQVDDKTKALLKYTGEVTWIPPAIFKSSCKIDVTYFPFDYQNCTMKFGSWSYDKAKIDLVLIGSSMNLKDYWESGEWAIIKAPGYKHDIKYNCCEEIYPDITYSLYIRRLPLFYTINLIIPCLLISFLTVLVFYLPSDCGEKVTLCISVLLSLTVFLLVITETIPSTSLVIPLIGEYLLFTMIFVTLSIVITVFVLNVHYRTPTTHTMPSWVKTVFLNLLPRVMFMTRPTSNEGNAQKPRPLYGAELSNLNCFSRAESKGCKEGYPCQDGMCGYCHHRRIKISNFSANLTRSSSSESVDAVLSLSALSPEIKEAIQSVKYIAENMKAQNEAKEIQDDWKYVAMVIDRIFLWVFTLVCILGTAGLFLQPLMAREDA", "T1 sequence (P30926 22-498)": "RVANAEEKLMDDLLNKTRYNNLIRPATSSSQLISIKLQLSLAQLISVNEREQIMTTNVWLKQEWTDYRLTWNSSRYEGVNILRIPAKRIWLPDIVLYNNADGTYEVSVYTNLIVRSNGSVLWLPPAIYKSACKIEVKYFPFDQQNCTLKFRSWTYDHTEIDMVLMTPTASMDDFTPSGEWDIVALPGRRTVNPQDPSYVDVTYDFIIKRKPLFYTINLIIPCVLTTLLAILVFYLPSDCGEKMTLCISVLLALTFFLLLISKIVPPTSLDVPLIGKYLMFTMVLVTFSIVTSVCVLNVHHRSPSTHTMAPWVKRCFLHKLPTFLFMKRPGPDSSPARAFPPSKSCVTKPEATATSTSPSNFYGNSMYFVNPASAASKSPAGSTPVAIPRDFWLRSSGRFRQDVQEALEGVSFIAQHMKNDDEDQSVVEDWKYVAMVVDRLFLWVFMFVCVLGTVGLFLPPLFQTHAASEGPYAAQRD", "assay": "Use-dependent inhibition of human α3β4 channels expressed in CHO cells (Dynaflow electrophysiology)", "assay_type": "cell-based", "experimental": "There was an assumption that the dependence on the number of co-applications would be the most relevant to clinical concentrations, since upon the time of exposure in vivo, the number of open channels could reach substantial numbers; perhaps due to channel spontaneous opening, flickering, and endogenous transmitter release as a result of brain activity. All experiments were performed using a conventional Dynaflow (Cellectricon Inc.) electrophysiological system. Dynaflow settings: To achieve continuous exposure to the drug we used following Dynaflow chip loading. An example of standard chip loading for use-dependent experiments with example for 30 μM ACh and 0.1 μM of TC-05231 (racemic mecamylamine). For the following experiments, ACh always consisted of 30 μM and concentrations of compounds were, 0.03, 0.1, 0.3 and 1.0 (μM). FIG. 13 illustrates the settings.\nApplications were performed by positioning the cell in front of channel #1 for 1 second, followed by channel #3, then back to channel #1 by rapidly moving the Dynaflow chip, which consisted of both the laminar flow from the channels and the entire bath solution. The additional channels between control and ACh-containing channel were used: (1) to provide the needed space for an additional washout to avoid contaminating the control channels with the agonist solution; and (2) to allow for the necessary amount of time for the Dynaflow stage to reach its optimum scanning speed.\n3.1. Establishment of recording baseline: First, pipette with cells moved to channel #3. Then cells were exposed to ACh by moving cells to channel #1 for 1 second and back to channel #3. This movement of cells was repeated 10 times at 30 second intervals;\n3.2. Collection data on use-dependent inhibition: After establishment of stable baseline, cells were moved to channel #6 and exposed to a test compound for 30 sec. Then cells were moved to channel #8 for 1 second and back to channel #6 for 30 seconds (total 10 times with intervals 30 seconds); and 3.3. To test reversibility of block (washout): repeat step 1. Note: with this chip setting, during repeated application of acetylcholine plus test compound, there was no interruption in application of compounds. For all calculations, peak current amplitude was normalized to the peak current amplitude evoked by the 10th application of acetylcholine. Experimental Results"}, "α4β2": {"molecular_target": "α4β2 (Homo sapiens, UniProt P17787+P43681)", "sequence (P43681 29-627 limits assumed)": "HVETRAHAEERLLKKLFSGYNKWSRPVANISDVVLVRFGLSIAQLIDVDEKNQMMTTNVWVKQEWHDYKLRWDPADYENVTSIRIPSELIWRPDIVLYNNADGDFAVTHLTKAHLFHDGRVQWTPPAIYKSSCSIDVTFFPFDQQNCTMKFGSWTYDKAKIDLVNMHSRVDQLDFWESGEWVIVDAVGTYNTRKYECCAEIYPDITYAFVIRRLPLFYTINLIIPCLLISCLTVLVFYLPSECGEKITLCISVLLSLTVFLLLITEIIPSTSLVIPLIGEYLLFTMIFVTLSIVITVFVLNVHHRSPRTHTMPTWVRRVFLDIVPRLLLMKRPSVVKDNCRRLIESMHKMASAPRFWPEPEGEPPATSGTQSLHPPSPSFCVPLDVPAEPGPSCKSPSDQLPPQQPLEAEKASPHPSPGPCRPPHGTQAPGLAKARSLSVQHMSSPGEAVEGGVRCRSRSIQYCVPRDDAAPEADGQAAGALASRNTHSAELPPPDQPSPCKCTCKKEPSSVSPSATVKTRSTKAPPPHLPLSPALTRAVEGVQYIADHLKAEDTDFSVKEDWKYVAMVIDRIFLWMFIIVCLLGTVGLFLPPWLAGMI", "sequence (P17787 26-502)": "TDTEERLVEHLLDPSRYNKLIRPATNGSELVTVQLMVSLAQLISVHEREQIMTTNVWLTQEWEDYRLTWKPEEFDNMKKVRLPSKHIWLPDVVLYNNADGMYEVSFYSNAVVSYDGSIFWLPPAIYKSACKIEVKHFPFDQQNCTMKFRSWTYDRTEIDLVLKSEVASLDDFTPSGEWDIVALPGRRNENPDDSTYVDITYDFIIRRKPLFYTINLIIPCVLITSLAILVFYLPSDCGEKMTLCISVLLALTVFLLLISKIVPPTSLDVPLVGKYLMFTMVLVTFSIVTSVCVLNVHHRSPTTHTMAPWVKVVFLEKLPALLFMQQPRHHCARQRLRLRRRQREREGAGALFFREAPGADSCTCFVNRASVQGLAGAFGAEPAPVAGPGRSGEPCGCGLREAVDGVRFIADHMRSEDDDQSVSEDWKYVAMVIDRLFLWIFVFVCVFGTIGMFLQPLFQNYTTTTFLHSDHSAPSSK", "details": "1 μM; cited from earlier work"}}, "data": [{"smiles": "CNC1(C)[C@H]2CCC(C2)C1(C)C", "note": "(stereo partly drawn) [TC-5214, (S)—N,2,3,3-tetramethylnorbornan-2-amine]", "values": [{"measurement": "extent of inhibition over concentration range (FIG. 22)", "setting": "NMDA receptor NR1a-NR2B; 3, 10, 30, 100, 300 nM, Glutamate 10 μM-Glycine 1 μM", "value": "partial inhibition"}, {"measurement": "concentration at which it potently inhibits", "setting": "NMDA receptor NR1a-NR2B; FIG. 23 legend", "value": "10 to 30", "unit": "nM"}, {"measurement": "expected mean concentrations (urine) in humans", "setting": "[1]; 0.5 mg BID dosing", "value": "approximately 3 μM"}, {"measurement": "mean urine concentrations", "setting": "[1]; 1 mg BID", "value": "approximately 6 μM"}, {"measurement": "excretion unchanged in the urine", "setting": "[1]", "value": "eliminated unchanged in the urine"}, {"measurement": "excretion unchanged in the urine", "setting": "[1]; listed as dexmecamylamine", "value": "excreted almost entirely unchanged in the urine"}, {"measurement": "concentrations in the bladder", "setting": "[1]; oral doses up to 4 mg BID", "value": "> 10", "unit": "µM"}, {"measurement": "orally administered dose excreted unchanged in the bladder", "setting": "[1]; oral, clinical program for depression incl. initial phase 1 study", "value": "≥ 90", "unit": "%"}, {"measurement": "peak current normalized to 10th ACh application (positive modulation, FIG. 16)", "setting": "human α3β4 channels; 30 nM compound + 30 μM ACh, first co-application, control = 100, SEM and n in next columns", "value": 113.3}, {"measurement": "positive modulation of α3β4 function", "setting": "human α3β4 channels; 30 nM, t-test p<0.05", "value": "weak positive modulation"}, {"measurement": "inhibition of human α3β4 receptor (asymptotes to the curve, FIG. 14)", "setting": "human α3β4 channels; 100 nM compound with acetylcholine", "value": "minor to no detectable inhibition"}, {"measurement": "Inhibition by (%)", "setting": "human α3β4 channels; 100 nM compound, after 10 co-applications of 30 uM Ach and compound", "value": "10% ± 6%"}, {"measurement": "activity at 0.03 µM", "setting": "human α3β4 channels; CHO, 30 nM compound + 30 μM ACh, successive grid rows = co-applications 1 to 10, control = 100, read-out: peak current amplitude normalized to 10th ACh application, use-dependent inhibition box", "value": 113, "unit": "%"}, {"measurement": "activity at 0.1 µM", "setting": "human α3β4 channels; CHO, 100 nM compound + 30 μM ACh, successive grid rows = co-applications 1 to 10 at 30 s intervals, control = 100, read-out: peak current amplitude normalized to 10th ACh application, use-dependent inhibition box", "value": 100, "unit": "%"}, {"measurement": "inhibition at 0.1 µM", "setting": "human α3β4 channels; CHO, 100 nM compound, after 10 co-applications of 30 uM Ach and compound, read-out: Inhibition by (%)", "value": 10.1, "unit": "%"}, {"measurement": "recovery (%)", "setting": "human α3β4 channels; after 100 nM compound, following 10 application of Ach (30 uM) alone", "value": "96% ± 6%"}, {"measurement": "recovery / persistence of inhibition after wash out", "setting": "human α3β4 channels; after 30 and 100 nM compound, agonist alone", "value": "full recovery"}, {"measurement": "NOEL", "setting": "30 days oral", "value": 1, "unit": "mg/kg/day"}, {"measurement": "mortality and histopathologic changes", "setting": "doses up to and including 50 mg/kg/day", "value": "did not produce any mortalities nor any histopathologic changes"}, {"measurement": "modulation of α4β2 function", "setting": "α4β2", "value": "positive modulation"}]}]}
